Laboratory results as given in patent publication US9977014B2, “Nanoparticle sensor for nucleic acid-protein interaction” (Agency for Science, Technology and Research, priority 2013, dated 2018).

Columns and labels:
[1] = target: T1, AP-2γ (Homo sapiens, UniProt Q92754); assay: CP/dsDNA-AuNP hybrid sensor protein titration
Protocol: The protein-DNA binding assay was conducted in three main steps (FIG. 4(A)): • 1) 50 nM dsDNA-AuNPs (referring to dsDNA concentration on the surface of AuNPs) was incubated with protein for 20-40 min at room temperature (RT).
Based on the relationship between protein concentration and fluorescence intensity, the binding constant, Kd, can be calculated using the equation: (F0−F)/(F−Fsat)=([protein]/Kd)^n. […] The slope, n, is the binding stoichiometry of protein to DNA.
The assay was also used to study a second transcription factor, AP-2γ (pI˜7.8), to test the applicability of the method. wtR3 and mtR3 were used as the probe DNA sequences (Table 2). […] From the relative decrease and increase in fluorescent intensity of CP with increasing concentration of AP-2γ, the binding affinity Kd and n were determined.

[2] = target: T1, AP-2γ; assay: Fluorescence anisotropy (FA) with labelled DNA probes; design: made in house; conditions: read-out: Binding constant (Kd)
[3] = target: T1, AP-2γ; assay: Electrophoretic Mobility Shift Assay (EMSA), DNA probe binding; design: made in house; conditions: read-out: Binding constant (Kd)
Excerpt: (§1) Electrophoretic Mobility Shift Assay (EMSA): Invitrogen Corporation, Panomics Inc., Pierce Biotechnology, Viagene Inc.

[4] = target: T2, His-MBP-FoxA1 (Homo sapiens, UniProt P55317); assay: Fluorescence anisotropy (FA) with FAM-labelled DNA probes; conditions: read-out: Binding constant (Kd)
T2 construct: Full-length FoxA1 cDNA was cloned into a pHISMBP (Addgene) expression vector; made in house; host or cells: E. coli BL21 (DE3)
T2 sequence (P55317 1-472): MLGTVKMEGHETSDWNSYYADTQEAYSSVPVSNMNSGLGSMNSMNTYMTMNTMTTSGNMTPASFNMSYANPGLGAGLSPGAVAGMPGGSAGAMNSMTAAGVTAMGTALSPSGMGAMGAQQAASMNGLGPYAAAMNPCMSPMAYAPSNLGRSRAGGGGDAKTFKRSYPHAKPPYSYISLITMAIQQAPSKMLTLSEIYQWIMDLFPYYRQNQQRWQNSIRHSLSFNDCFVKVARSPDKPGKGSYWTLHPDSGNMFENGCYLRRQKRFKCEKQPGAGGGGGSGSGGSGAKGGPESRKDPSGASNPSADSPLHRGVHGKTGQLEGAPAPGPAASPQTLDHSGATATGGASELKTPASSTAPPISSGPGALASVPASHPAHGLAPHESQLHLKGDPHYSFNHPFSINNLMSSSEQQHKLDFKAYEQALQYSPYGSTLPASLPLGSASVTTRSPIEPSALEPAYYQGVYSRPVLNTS
Protocol: Fluorescence anisotropy (FA): To determine the binding activity of His-MBP-FoxA1 to various FoxA1 probes containing its cognate DNA element, fluorescence anisotropy (FA) assay was utilized. The wildtype and two mutant probes for FoxA1, labelled with carboxyfluorescein (FAM), are as described earlier in Table 1. The assays were carried out in 384-well microplates (Corning) in which varying concentrations of protein were incubated with 2 nM of the labelled probe in PBS buffer for 20 min at room temperature (RT). To examine the effects of small molecule inhibitors on FoxA1 DNA binding, 125 nM of protein was pre-incubated with 5% DMSO, or 1 mM unlabelled probe, or 1.9 mM inhibitor for 1 h, at room temperature (RT), before the addition of 2 nM of the FAM labelled probe for another hour incubation.
Fluorescence anisotropy was measured using Synergy 2 Multi-Mode Microplate Reader with a 485/20-excitation and a 528/20-emission filter. The equilibrium dissociation constants for each wild-type probe were subsequently calculated by fitting the FoxA1 concentration vs. fluorescence polarization plot using Langmuir isotherm in Origin Pro 8 software. Standard error values (precision of the fitted values) were also obtained from the software after fitting.

[5] = target: T3, FoxA1 (Homo sapiens, UniProt P55317); assay: Electrophoretic Mobility Shift Assay (EMSA), DNA probe binding; conditions: read-out: Binding constant (Kd)
T3 construct: Full-length FoxA1 cDNA was cloned into a pHISMBP (Addgene) expression vector; made in house; host or cells: E. coli BL21 (DE3)
T3 sequence (P55317 1-472): T2 sequence (P55317 1-472)
Excerpt: as §1

[6] = target: T3, FoxA1; assay: CP/dsDNA-AuNP hybrid sensor protein titration; conditions: read-out: Binding constant (Kd)
Protocol: Qualitatively, the affinity of FOxA1 to different DNA probes can be identified by the degree of change in fluorescence intensity. For measuring the binding affinity constant Kd, protein titration was conducted using protein:DNA molar ratios of 0:1 to 5:1. That is, in a 50 nM solution of dsDNA-AuNPs, protein was added to achieve a concentration of 0-250 nM. The respective fluorescence intensity of the subsequent CP emission was recorded and compared with a control reaction containing no protein (FIG. 12).

[7] = system: FoxA1 and AP2γ; assay: Ligand selectivity (positive = inhibitor, negative) listed in Table 3; format: binding; design: key: Positive: A positive ligand refers to a ligand that can inhibit protein binding to DNA; Negative: a negative ligand is a ligand that does not interrupt the binding
Excerpt: 9 small ligands (as described in Table 3) were used to disrupt the DNA-protein interaction. […] It must be clearly understood that a particular ligand can bind strongly (with high affinity) to a certain protein but not inhibit the subsequent protein binding to DNA and vice versa. The main objective of this assay is to screen ligands that can interrupt protein binding to DNA regardless of their affinity to the protein. All of the ligands were kept as solutions in DMSO. Before using, they were thawed in a room temperature water bath.

[8] = target: T3, FoxA1; assay: Ligand inhibition of DNA-protein interaction, CP/Probe2-AuNP hybrid sensor; format: binding; conditions: protein:ligand 1:8
Protocol: For screening of ligand inhibition of the DNA-protein interaction (FIG. 4(B)), the ligand and protein were incubated at a molar ratio of 8:1 for 10-20 min at RT prior to the addition of dsDNA-AuNP in step (1) above. Steps (1), (2) and (3) were then repeated.
The proteins and each ligand were mixed at a ratio of 1:8 for 10 min. The protein-ligand pre-incubation solution was then mixed with dsDNA-AuNP and further incubated for 20 mins. The CP was then added as the last step. Positive and negative controls were also prepared, where the positive control was dsDNA-AuNP incubated with protein without ligand, and the negative control was dsDNA-AuNPs incubated without any protein added.

[9] = CP/dsDNA-AuNPs hybrid sensor (ACP-430)
[10] = CP/dsDNA-AuNPs hybrid sensor (ACP-560)
[11] = CP/dsDNA-AuNPs hybrid sensor (CCP-410)

T1 sequence (Q92754 whole entry, species assumed): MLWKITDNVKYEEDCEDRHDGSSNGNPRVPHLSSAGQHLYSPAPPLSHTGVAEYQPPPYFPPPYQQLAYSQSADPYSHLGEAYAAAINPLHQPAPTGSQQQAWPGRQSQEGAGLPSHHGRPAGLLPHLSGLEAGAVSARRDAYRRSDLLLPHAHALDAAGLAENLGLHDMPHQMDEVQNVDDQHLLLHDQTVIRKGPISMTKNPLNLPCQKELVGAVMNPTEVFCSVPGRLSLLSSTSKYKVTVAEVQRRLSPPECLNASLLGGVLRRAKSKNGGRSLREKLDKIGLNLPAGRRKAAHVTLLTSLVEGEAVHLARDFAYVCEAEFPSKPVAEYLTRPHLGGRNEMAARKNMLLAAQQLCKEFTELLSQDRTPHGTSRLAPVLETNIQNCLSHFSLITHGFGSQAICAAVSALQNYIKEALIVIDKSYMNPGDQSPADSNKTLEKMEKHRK

Compound	Kd [4]	Kd [5]	Kd [6, 9]	Kd [6, 10]	Kd [6, 11]	other results
wtR3: GC rich wild-type DNA for AP-2γ, 5′-AAAGTGCCCAGAGCCCATG-3′ (SEQ ID NO: 7) with complementary strand (antisense CATGGGCTCTGGGCACTTT; DNA, backbone and methylation of C not given here; sense strand 5'-thiol-labelled, conjugated to gold nanoparticles)						Kd ([1]; read-out: Binding constant (Kd), CP/dsDNA-AuNPs hybrid sensor (ACP-430)): 12.4 nM; Kd ([1]; read-out: Binding constant (Kd), CP/dsDNA-AuNPs hybrid sensor (ACP-560)): 14.6 nM; Kd ([1]; read-out: Binding constant (Kd), CP/dsDNA-AuNPs hybrid sensor (CCP-410)): 13 nM; Kd [2]: 50.6 nM; Kd [3]: 139 nM
Probe1: FoxA1 DNA probe 5′-CACTTTGTTTGCAAAGC-3′ (SEQ ID NO: 1) with complementary strand; modified at the centre (antisense GCTTTGCAAACAAAGTG; DNA, backbone and methylation of C not given here; sense strand 5'-thiol-labelled, conjugated to gold nanoparticles)	231 nM	459 nM	31.3 nM	32.9 nM	34.1 nM	
Probe2: Ideal FoxA1 DNA probe 5′-GTACTGTAAATAAAACT-3′ (SEQ ID NO: 3) with complementary strand (antisense AGTTTTATTTACAGTAC; DNA, backbone and methylation of C not given here; sense strand 5'-thiol-labelled, conjugated to gold nanoparticles)	16 nM	47.8 nM	4.47 nM	5.76 nM	5.02 nM	
Nc1ccc2nc3ccc(=O)cc-3n(-c3ccccc3)c2c1 [Ligand 4]						Selectivity for FoxA1 and AP2γ [7]: Negative; Ligand effect on FoxA1-DNA binding ([8]; ACP-430/Probe2-AuNP and CCP-410/Probe2-AuNP): negligible effect; Ligand influence on FoxA1-Probe2 binding ([8]; ACP-430/Probe2-AuNP): retain its binding capability
